Laboratory results taken from patent US7642245B2, “Antibacterial compounds having a (pyrrole carboxamide)-(benzamide)-(imidazole carboxamide) motif” (Oscient Pharmaceuticals Corporation, priority 2002, dated 2010).

Key:
[1] = tested on: Enterococcus faecalis ATCC 29212; test: Disc diffusion of non-formulated compounds; format: cell-based; settings: ATCC29212, non-formulated compound, 30 μg/disc, E. faecalis ATCC 29212 on TSA + 5% Sheep Blood, 6.3 mm disc = no inhibition zone, read-out: Zone Diameter (nearest whole mm)
Procedure: (§1) The diffusion assays on a compound of this invention were performed according to NCCLS Guidelines (Performance Standards for Antimicrobial Susceptibility Testing, M100-S12 vol. 22 and Performance Standards for Antimicrobial Disk Susceptibility Tests, M2-A7 vol. 20) with the following modifications: Generally, diffusion of the drug from the inoculation site (the disk or the well, as the case may be) through the agar creates a concentration gradient of the test compound. Bacterial growth is inhibited by the drug, creating a zone of inhibition. […] The activity of the compound was determined by measurement of the zone of inhibition surrounding the disk. The results are provided in Tables C, D, and E. The diffusion results of Table C measure the diffusion of free compound. The diffusion results of Tables D and E measure the diffusion of compound formulated into a cream.

[2] = tested on: Staphylococcus aureus ATCC 13709; test: Disc diffusion of non-formulated compounds; format: cell-based; settings: ATCC13709, non-formulated compound, 30 μg/disc, S. aureus ATCC 13709 on TSA, 6.3 mm disc = no inhibition zone, read-out: Zone Diameter (nearest whole mm)
Procedure: as §1

[3] = tested on: Streptococcus pneumoniae ATCC 49619; test: Disc diffusion of non-formulated compounds; format: cell-based; settings: ATCC49619, non-formulated compound, 30 μg/disc, S. pneumoniae ATCC 49619 on TSA + 5% Sheep Blood, 6.3 mm disc = no inhibition zone, read-out: Zone Diameter (nearest whole mm)
Procedure: as §1

S. aureus ATCC 13709 = test: MIC, NCCLS broth microdilution; format: cell-based, Staphylococcus aureus; settings: A = S. aureus ATCC 13709 (MSSA)
Method in brief: (§2)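 Compounds were serially diluted in broth and tested against each strain according to NCCLS guidelines, with MIC taken as the endpoint. C. albicans was assayed per the Manual of Clinical Microbiology.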

S. aureus ATCC 27660 = test: MIC, NCCLS broth microdilution; format: cell-based, Staphylococcus aureus; settings: B = S. aureus ATCC 27660 (MRSA)
Method in brief: as §2

E. faecalis ATCC 29212 = test: MIC, NCCLS broth microdilution; format: cell-based, Enterococcus faecalis; settings: C = E. faecalis ATCC 29212
Method in brief: (§3)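 Minimal inhibitory concentration determined by NCCLS broth microdilution in microtiter plates per documents M7-A4, M11-A4 and M27-T. S. aureus ATCC 27660 is a methicillin-resistant strain. The antifungal test on C. albicans followed the method recommended in the Manual of Clinical Microbiology (1995).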

B. cereus ATCC 11778 = test: MIC, NCCLS broth microdilution; format: cell-based, Bacillus cereus; settings: D = B. cereus ATCC 11778
Method in brief: as §2

S. pneumoniae ATCC 49619 = test: MIC, NCCLS broth microdilution; format: cell-based, Streptococcus pneumoniae; settings: E = S. pneumoniae ATCC 49619
Method in brief: as §3

C. albicans ATCC 38247 = test: MIC, antifungal assay; format: cell-based, Candida albicans; settings: F = C. albicans ATCC 38247
Method in brief: as §2

E. coli ATCC 25922 = test: MIC, NCCLS broth microdilution; format: cell-based, Escherichia coli; settings: G = E. coli ATCC 25922
Method in brief: as §3

[4] = tested on: M. catarrhalis (ATCC 25238); test: MIC, NCCLS broth microdilution; format: cell-based, Moraxella (now Branhamella) catarrhalis; settings: H = M. catarrhalis (ATCC 25238)
Method in brief: as §2

Row | Minimum Inhibitory Concentration (MIC) (S. aureus ATCC 13709) | Minimum Inhibitory Concentration (MIC) (S. aureus ATCC 27660) | Minimum Inhibitory Concentration (MIC) (E. faecalis ATCC 29212) | Minimum Inhibitory Concentration (MIC) (B. cereus ATCC 11778) | Minimum Inhibitory Concentration (MIC) (S. pneumoniae ATCC 49619) | Minimum Inhibitory Concentration (MIC) (C. albicans ATCC 38247) | Minimum Inhibitory Concentration (MIC) (E. coli ATCC 25922) | Minimum Inhibitory Concentration (MIC) [4] | SMILES | zone of inhibition at 30 µg/disc [1] [mm] | zone of inhibition at 30 µg/disc [2] [mm] | zone of inhibition at 30 µg/disc [3] [mm]
1 |  |  |  |  |  |  |  |  | CN[C@H](CC(C)C)C(=O)N[C@H]1C(=O)N[C@@H](CC(N)=O)C(=O)N[C@H]2C(=O)N[C@H]3C(=O)N[C@H](C(=O)N[C@H](C(=O)O)c4cc(O)cc(O)c4-c4cc3ccc4O)[C@H](O)c3ccc(c(Cl)c3)Oc3cc2cc(c3O[C@@H]2O[C@H](CO)[C@@H](O)[C@H](O)[C@H]2O[C@H]2C[C@](C)(N)[C@H](O)[C@H](C)O2)Oc2ccc(cc2Cl)[C@H]1O [Vancomycin] | 15 | 15 | 19
2 | +++ (MIC ≦ 4 μg/mL) | +++ (MIC ≦ 4 μg/mL) | +++ (MIC ≦ 4 μg/mL) | +++ (MIC ≦ 4 μg/mL) | +++ (MIC ≦ 4 μg/mL) | + (12 ≦ MIC ≦ 32 μg/mL) | ++ (4 < MIC < 12 μg/mL) | +++ (MIC ≦ 4 μg/mL) | COCCNCCNC(=O)c1nc(NC(=O)c2ccc(NC(=O)c3cc(NC(=O)c4cc5ccccc5cn4)cn3C)cc2)cn1C [Compound A-28] |  |  | 
3 | +++ (MIC ≦ 4 μg/mL) | +++ (MIC ≦ 4 μg/mL) | +++ (MIC ≦ 4 μg/mL) | +++ (MIC ≦ 4 μg/mL) | +++ (MIC ≦ 4 μg/mL) | ++ (4 < MIC < 12 μg/mL) | >32 µg/mL | ++ (4 < MIC < 12 μg/mL) | Cn1cc(NC(=O)c2cc3ccccc3cn2)cc1C(=O)Nc1ccc(C(=O)Nc2cn(C)c(C(=O)NCCN3CCC(OC(=O)CCN)CC3)n2)cc1 [Compound A-60] |  |  | 
4 | +++ (MIC ≦ 4 μg/mL) | +++ (MIC ≦ 4 μg/mL) | +++ (MIC ≦ 4 μg/mL) | +++ (MIC ≦ 4 μg/mL) | +++ (MIC ≦ 4 μg/mL) | >32 µg/mL | >32 µg/mL | +++ (MIC ≦ 4 μg/mL) | COCC(C)NCCNC(=O)c1nc(NC(=O)c2ccc(NC(=O)c3cc(NC(=O)c4cc5ccccc5cn4)cn3C)cc2)cn1C (centres unmarked) [Compound A-38] |  |  | 
5 | +++ (MIC ≦ 4 μg/mL) | +++ (MIC ≦ 4 μg/mL) | +++ (MIC ≦ 4 μg/mL) | +++ (MIC ≦ 4 μg/mL) | +++ (MIC ≦ 4 μg/mL) | >32 µg/mL | >32 µg/mL | +++ (MIC ≦ 4 μg/mL) | Cn1cc(NC(=O)c2cc3ccccc3cn2)cc1C(=O)Nc1ccc(C(=O)Nc2cn(C)c(C(=O)NCCN3CCN(CCOC(=O)CNC(=O)C4OC(O)C(O)C(O)C4O)CC3)n2)cc1 (centres unmarked) [Compound A-76] |  |  | 
6 | +++ (MIC ≦ 4 μg/mL) | +++ (MIC ≦ 4 μg/mL) | +++ (MIC ≦ 4 μg/mL) | +++ (MIC ≦ 4 μg/mL) | +++ (MIC ≦ 4 μg/mL) | + (12 ≦ MIC ≦ 32 μg/mL) | >32 µg/mL | +++ (MIC ≦ 4 μg/mL) | Cn1cc(NC(=O)c2cc3ccccc3cn2)cc1C(=O)Nc1ccc(C(=O)Nc2cn(C)c(C(=O)NCCN3CCNCC3)n2)cc1 [Compound A-47] |  |  | 
7 | +++ (MIC ≦ 4 μg/mL) | +++ (MIC ≦ 4 μg/mL) | +++ (MIC ≦ 4 μg/mL) | +++ (MIC ≦ 4 μg/mL) | + (12 ≦ MIC ≦ 32 μg/mL) | >32 µg/mL | >32 µg/mL | >32 µg/mL | Cn1cc(NC(=O)c2cc3ccccc3cn2)cc1C(=O)Nc1ccc(C(=O)Nc2cn(C)c(C(=O)NCCN3CCC(OC(=O)CNS(=O)(=O)O)CC3)n2)cc1 [Compound A-68] |  |  | 
8 | +++ (MIC ≦ 4 μg/mL) | +++ (MIC ≦ 4 μg/mL) | +++ (MIC ≦ 4 μg/mL) | +++ (MIC ≦ 4 μg/mL) | +++ (MIC ≦ 4 μg/mL) | ++ (4 < MIC < 12 μg/mL) | ++ (4 < MIC < 12 μg/mL) | + (12 ≦ MIC ≦ 32 μg/mL) | Cn1cc(NC(=O)c2cc3c(Cl)cccc3cn2)cc1C(=O)Nc1ccc(C(=O)Nc2cn(C)c(C(=O)NCCN3CCC(O)CC3)n2)cc1 [Compound A-9] |  |  | 
9 | +++ (MIC ≦ 4 μg/mL) | +++ (MIC ≦ 4 μg/mL) | +++ (MIC ≦ 4 μg/mL) | +++ (MIC ≦ 4 μg/mL) | +++ (MIC ≦ 4 μg/mL) | >32 µg/mL | >32 µg/mL | +++ (MIC ≦ 4 μg/mL) | Cn1cc(NC(=O)c2cc3ccccc3cn2)cc1C(=O)Nc1ccc(C(=O)Nc2cn(C)c(C(=O)NCCN3CCOCC3)n2)cc1 [Compound A-10] |  |  | 
10 | +++ (MIC ≦ 4 μg/mL) | +++ (MIC ≦ 4 μg/mL) | +++ (MIC ≦ 4 μg/mL) | +++ (MIC ≦ 4 μg/mL) | +++ (MIC ≦ 4 μg/mL) | >32 µg/mL | >32 µg/mL | +++ (MIC ≦ 4 μg/mL) | Cn1cc(NC(=O)c2cc3ccccc3cn2)cc1C(=O)Nc1ccc(C(=O)Nc2cn(C)c(C(=O)NCCN3CCC(F)CC3)n2)cc1 [Compound A-41] |  |  | 
11 | +++ (MIC ≦ 4 μg/mL) | +++ (MIC ≦ 4 μg/mL) | +++ (MIC ≦ 4 μg/mL) | +++ (MIC ≦ 4 μg/mL) | +++ (MIC ≦ 4 μg/mL) | >32 µg/mL | >32 µg/mL | ++ (4 < MIC < 12 μg/mL) | CC(C)C(CO)NCCNC(=O)c1nc(NC(=O)c2ccc(NC(=O)c3cc(NC(=O)c4cc5ccccc5cn4)cn3C)cc2)cn1C (centres unmarked) [Compound A-46] |  |  | 
